Assay [1] concerns the target T1, InsP3Kinase-A (Homo sapiens, UniProt P23677). Description: biochemical. More on the design: gene ITPKA; full-length GST-InsP3Kinase-A. Particulars: ADP-Glo, 5 uM compound, normalized to positive control. How it is done: For the inhibitor screening, the compounds were diluted in dimethylsulfoxide (DMSO, Sigma), and a final compound concentration of 5 µM was applied to each well. Each measurement was performed in triplicates. As controls, a positive control (enzyme solution with InsP3Kinase and without compounds, but with DMSO), a negative control (enzyme buffer without InsP3Kinase), and an inhibitor control (quercetin and BIP-4) were applied. In each well, there was a final buffer concentration of 20 mM HEPES pH 7.5, 5 mM MgCl2, 30 mM KCl, 1 mM DTT, 0.5 mM ATP, and an enzyme concentration between 20 nM and 55 nM was applied. […] Then, 10 µl of ADP-Glo reagent was added (depleting remaining ATP and stopping InsP3Kinase enzymatic reaction) and incubated for 20 min at room temperature (RT). […] For luminescent measurement, a TECAN infinite 200 plate reader was used with an integration time of 1000 ms at a temperature of 30°C. For this screen, all measurements were performed in triplicates, three-times using the ADP Glo assay.
For orientation: ADP-Glo turns the ADP formed in a reaction into a luminescent signal.

Assay [2] has as its target T1, InsP3Kinase-A. Put plainly: coupled PK/LDH assay with Lineweaver-Burk; thermal shift +[…] °C on wt. Type of assay: biochemical. More on the design: gene ITPKA; full-length, tag-less.
For assay [3], the target named is T2, InsP3Kinase-A (Homo sapiens, UniProt P23677, K264Q).
T2 construct: gene ITPKA; full-length
T2 sequence (P23677 whole entry K264Q): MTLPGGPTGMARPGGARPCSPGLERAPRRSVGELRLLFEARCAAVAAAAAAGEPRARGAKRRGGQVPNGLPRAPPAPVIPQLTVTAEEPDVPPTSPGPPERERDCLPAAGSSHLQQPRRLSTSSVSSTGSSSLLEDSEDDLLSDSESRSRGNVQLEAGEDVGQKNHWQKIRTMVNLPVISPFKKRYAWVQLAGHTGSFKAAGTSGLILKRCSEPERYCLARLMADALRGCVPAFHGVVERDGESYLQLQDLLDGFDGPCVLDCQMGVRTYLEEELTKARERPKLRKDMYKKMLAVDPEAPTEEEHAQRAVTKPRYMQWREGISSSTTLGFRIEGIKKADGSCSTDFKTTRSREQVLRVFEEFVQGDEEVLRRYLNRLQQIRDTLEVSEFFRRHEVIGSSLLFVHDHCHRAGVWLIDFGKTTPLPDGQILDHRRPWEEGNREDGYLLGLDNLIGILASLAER
Put plainly: activity of purified mutant with and without BIP-[…] to […]). Type of assay: biochemical.

Assay [4] has as its target T1, InsP3Kinase-A. Description: biochemical. More on the design: gene ITPKA; full-length GST-InsP3Kinase-A. The settings on record: ADP-Glo, 5 uM compound, normalized to positive control. This is another data set of the same source.
Procedure: For the inhibitor screening, the compounds were diluted in dimethylsulfoxide (DMSO, Sigma), and a final compound concentration of 5 µM was applied to each well. Each measurement was performed in triplicates. […] In each well, there was a final buffer concentration of 20 mM HEPES pH 7.5, 5 mM MgCl2, 30 mM KCl, 1 mM DTT, 0.5 mM ATP, and an enzyme concentration between 20 nM and 55 nM was applied. […] Then, 10 µl of ADP-Glo reagent was added (depleting remaining ATP and stopping InsP3Kinase enzymatic reaction) and incubated for 20 min at room temperature (RT). Next, 10 µl kinase detection reagent (converting remaining ADP to ATP and containing luciferase, which uses ATP as substrate) was added, and incubation was continued for 15 min at RT. For luminescent measurement, a TECAN infinite 200 plate reader was used with an integration time of 1000 ms at a temperature of 30°C. For this screen, all measurements were performed in triplicates, three-times using the ADP Glo assay.

Structures are written as SMILES.

T1 sequence (P23677 whole entry): as the sequence (P23677 whole entry K264Q) above, with Q264K counted along it

At InsP3Kinase-A [1], `CCN(CC)S(=O)(=O)c1ccc(N2C(=O)c3cc([N+](=O)[O-])cc4cc([N+](=O)[O-])cc(c34)C2=O)cc1` [compound 33, 33] showed an inhibition at 5 µM of 41.6%.
On the same count and under the same terms, then `O=C1c2cc([N+](=O)[O-])cc3cc([N+](=O)[O-])cc(c23)C(=O)N1c1ccccc1Cl` [compound 28, 28], with 19.7%; and `CNS(=O)(=O)c1ccc(N2C(=O)c3cc([N+](=O)[O-])cc4cc([N+](=O)[O-])cc(c34)C2=O)cc1` [compound 31, 31], with 33.4%.
In the case of `Cc1nn(-c2ccc([N+](=O)[O-])cc2)c(C)c1N1C(=O)c2cc([N+](=O)[O-])cc3cc([N+](=O)[O-])cc(c23)C1=O` [BIP-4, 2-[3,5-dimethyl-1-(4-nitrophenyl)-1H-pyrazol-4-yl]-5,8-dinitro-1H-benzo[de]isoquinoline-1,3(2H)-dione], on InsP3Kinase-A [2], the Ki came to 437 nM. The “Enzyme activity + BIP4 in %” value at InsP3Kinase-A [3] was 18.797 % enzyme activity with BIP-4.
`O=C1c2cc([N+](=O)[O-])cc3cc([N+](=O)[O-])cc(c23)C(=O)N1c1ccc(Br)cn1` [compound 78, 78] yielded an inhibition at 5 µM at InsP3Kinase-A [4] of 1.6%.
With `CCOc1ccc(N2C(=O)c3cc([N+](=O)[O-])cc4cc([N+](=O)[O-])cc(c34)C2=O)cc1` [compound 27, 27], on InsP3Kinase-A [1], testing at 5 µM gave an inhibition of 31.4%.
On the same count and under the same terms, then `Cc1ccc(N2C(=O)c3cc([N+](=O)[O-])cc4cc([N+](=O)[O-])cc(c34)C2=O)c(C)c1` [compound 19, 19], with 36.2%.

Broadly, the inhibition is the drop in the measured response relative to a control, in per cent. High values mean a response far below the control, low ones a response near the control. What is called Ki is a dissociation constant, usually derived from enzyme kinetics or from competition with a known ligand.

The record behind these values is article PMC8292763, “Mechanism of BIP-4 mediated inhibition of InsP3Kinase-A” (Bioscience Reports, 2021).
